This note sets out measurements from US20060100264A1, “3,3'-Diindolylmethane immune activating compositions” (priority 2004, published 2006).

One assay has as its system IFNγ receptor (IFNGR1). In words: IFNGR1 mRNA expression in DIM-treated MCF-7 cells (cDNA microarray, Northern blot, quantitative RT-PCR). It counts as cell-based, human. As for the experimental part:
(§1) Immune response activating effects of the DIM analogs are examined with cell-based assays for cytokine and cytokine receptor expression. […] We also used a sensitive sandwich ELISA assay to examine levels of IFNγ in medium from confluent cultures of MCF-7 cells that were treated for up to 3 days. DIM derivatives confirmed to have immune response activating activity in our reporter and ELISA assays are subsequently screened in a whole animal cytokine production and Y. enterocolitica infection studies, as described below in Examples VIII and IX.
(§2) An initial cDNA gene expression microarray screen of human breast cancer MCF-7 cells treated with DIM, followed by confirmation of results using Northern blots and quantitative RT-PCR, established the transcriptional activation of IFNγ, IFNγ receptor (IFNGR1), oligoadenylate-synthase (OAS) family member protein 69 (p69-OAS), and interferon-inducible protein 56 (p56), a protein closely related to OAS. […] Maximum induction for IFNγ, IFNGR1, p69-OAS and p56 were 4.6, 3.8, 3.2 and 4.0 fold, respectively.

Assay [1] deals with oligoadenylate-synthase (OAS) family member protein 69 (p69-OAS). In words: p69-OAS mRNA expression in MCF-7 cells (microarray, Northern blot, RT-PCR). It counts as cell-based, human. The protocol:
as §1, §2

Assay [2] has as its system interferon-inducible protein 56 (p56). In words: p56 mRNA expression in DIM-treated MCF-7 cells (cDNA microarray, Northern blot, quantitative RT-PCR). It counts as cell-based, human. As for the experimental part:
as §1, §2

The subject of another assay is IFNGR1 protein. Put plainly: Western blot analysis of IFNGR1 protein. The class given is cell-based, human. The protocol: IFNGR1 protein levels increased by approximately 7 fold after 24 h and persisted to 48 h compared to DMSO-treated controls.
Comparison of our results with DIM to our studies with I3C (27) show some distinct differences in the activity of DIM and its in vivo precursor in their effects on IFNγ signaling. […] Similar effects of DIM and I3C were also observed on cell proliferation and cell cycling. […] Thus, a strong level of induction (about 5 fold) was seen after only 6 hours of exposure to DIM, and the maximum induction was attained by 24 hours of treatment with this diindole. In contrast, receptor expression was increased by only about 3 fold following 24 hours of treatment with I3C, and appeared to reach the maximum induction only after about 48 hours of exposure. […] Indeed, we have shown previously that DIM accumulates in the nucleus of MCF-7 cultured cells treated with I3C (28).
In general terms: In western blotting, separated proteins are transferred to a membrane and probed.

In assay [3] the test system is OAS-Luc reporter (promoter and 5′-flanking region of p69-OAS). Put plainly: OAS-Luc luciferase reporter in transiently transfected MCF-7 cells. The class given is cell-based, human. As to conditions: 24 h treatment. The protocol:
In a further experiment to examine whether the inducing effects of DIM are at the transcriptional level, the effect of DIM on activities of two luciferase reporter constructs, OAS-Luc (12) and 4GAS-Luc (13) was examined. OAS-Luc contains the promoter and 5′-flanking region (−972) of p69-OAS and GAS-Luc contains four repeats of the consensus GAS element. MCF-7 cells transiently transfected with these reporter constructs were treated with IFNγ, DIM, or a combination of both for 24 h. […] IFNγ induced transcriptional activity of this reporter in a concentration dependent manner to a maximum of about 1.8 fold, which is less than the response of the endogenous gene of about 5.0 fold. In marked contrast to the maximum effects of combined treatments of the inducers on endogenous gene expression (nearly 12-fold increase compared to vehicle treated cells), the reporter gene construct responded with less than a 3-fold increase over the controls.
(Reporter assays use an easily measured gene product as a stand-in for the process of interest.)

A further assay deals with GAS element. In words: Electrophoretic gel mobility shift assay, STAT1 binding to GAS element. It counts as cell-based, human. As to conditions: DIM pretreatment for various times, IFNγ 30 min. The protocol: An electrophoretic gel mobility shift assay was used to verify that the phosphorylated STAT1 was effectively activated to a dimer that could bind to the GAS element. The ^32P-labeled DNA probe containing a GAS sequence was incubated with nuclear extracts from cells pretreated with DIM for various times as indicated, and with IFNγ for 30 min. […] When samples were incubated with an antibody specific to STAT1, the band was super-shifted, confirming the identity of the protein binding to the labeled GAS probe.

For a further assay, the system named is MHC-I complex. Put plainly: Flow cytometry of cell surface MHC-I expression (FITC-conjugated HLA-ABC antibody). It counts as cell-based, human. As to conditions: no IFNγ. As for the experimental part: Induced expression of the MHC-I complex is a well-established and important down-stream target of IFNγ-mediated signal transduction. To examine further the possible synergistic effects of DIM on a significant metabolic product of IFNγ signaling, we tested the effects of co-treatment with DIM on IFNγ induced expression of MHC-I complex in MCF-7 cells.
Flow cytometry analysis of cell surface MHC-I expression was conducted using FITC-conjugated HLA-ABC antibody. In an initial control experiment, cultured MCF-7 cells were pre-treated with 30 μM DIM for 48 hours and then with or without 10 ng/mL IFNγ for another 16 hours. […] In a subsequent experiment in which cells were treated with a range of IFNγ concentrations and analyzed with the anti-MHC-I antibody, a strong signal indicative of IFNγ-induced MHC-I expression was detectable at 0.1 ng/mL and appeared to plateau at 10 ng/mL. In cells treated with vehicle control only, MHC-I expression was not detected in greater than 99% of cells.
Exposure to DIM of cells treated with 10 ng/mL of IFNγ, about 95% of which expressed MHC-I, produced a strong time dependent increase in MFV from 76.04 to 131.41. […] As expected, addition of an IFNγ blocking antibody into the medium before the treatments abrogated the inducing effects of co-treatments of IFNγ and DIM on MHC-I expression, confirming the requirement of the cytokine for the observed effects.

For a further assay, the system named is G-CSF. In words: Serum G-CSF by ELISA in mice after DIM. The class given is in vivo. As to conditions: 30 μg/kg DIM orally. The protocol: (§3) We firstly investigated the effect of unsubstituted DIM on the production of IL-6, G-CSF, IL-12, TNF-α and IFNγ. A groups of 3 mice was given 30 μg/kg of unsubstituted DIM orally and then sacrificed at 1, 3, 5, 8, and 24 h after drug challenge. Serum was collected, pooled, and assayed for IL-6, G-CSF, IL-12 and TNF-α by ELISA. […] DIM produced an increase in circulating levels of G-CSF and TNF-α with the 3 h time point being maximal. […] DIM also stimulated IL-12 and kinetics were slightly different since the increased levels were sustained for at least 24 h.

A further assay deals with IL-6. In words: Serum IL-6 by ELISA in mice after DIM. The class given is in vivo. As to conditions: 30 μg/kg DIM orally. As for the experimental part: as §3

A value given as a limit tells only on which side of the number the result lay.

On to `c1ccc2c(Cc3c[nH]c4ccccc34)c[nH]c2c1` [DIM, 3,3′-Diindolylmethane], for which, in the assay with IFNγ receptor (IFNGR1) (MCF-7 cells treated with DIM), the “Maximum induction of IFNGR1 mRNA” value was 3.8 fold and the “Treatment time at which maximum IFNGR-1 induction was reached” value is recorded as 48 h. Besides, the “IFNGR1 mRNA level at 48 h of treatment” value in the assay on IFNγ receptor (IFNGR1) (MCF-7 cells, 48 h) is reported as “remained elevated”. Further, in [1] (MCF-7 cells treated with DIM), the “Maximum induction of p69-OAS mRNA” value is given as 3.2 fold and the “Treatment time at which p69-OAS expression was fully induced” value is recorded as 6 h. The “p69-OAS mRNA level at 48 h of treatment” value in [1] (MCF-7 cells, 48 h) is recorded as “remained elevated”. In addition, in [2] (MCF-7 cells treated with DIM), the “Maximum induction of p56 mRNA” value is given as 4.0 fold and the “Treatment time at which p56 expression was fully induced” value is given as 6 h. The “p56 mRNA level following 48 h of DIM treatment” value in assay [2] (MCF-7 cells, 48 h) is “returned to near control levels”. In addition, in the assay on IFNGR1 protein (DIM), the “Maximum level of IFNGR1 protein induction” value is “about 7 fold” and the “Time at which maximum IFNGR1 protein induction was attained” value is not above 24 h. Further, the IFNGR1 protein induction result in the assay with IFNGR1 protein (after 6 hours of exposure to DIM) is on record as “about 5 fold”. In addition, in the assay with IFNGR1 protein (after 24 h of DIM, persisted to 48 h), the “IFNGR1 protein level increase compared to DMSO-treated controls” value is “approximately 7 fold”. Further, in [3], the “Maximum induction of OAS-Luc reporter” value is reported as “about 2.3 fold”. Moreover, the “Band-shift of 32P-labeled GAS probe with nuclear extracts” value in the assay with GAS element is reported as “did not produce a shifted band”. Further, the “Expression of the MHC-I complex, DIM treatment alone” value with MHC-I complex is reported as “no significant effect”. Besides, the “Time point of maximal circulating G-CSF” value in the assay with G-CSF is 3 h. The “Time of peak IL-6 induction” value with IL-6 worked out at 5 h.
